Results taken from PubChem BioAssay AID652211 (Johns Hopkins Ion Channel Center, 2013).
pIC50: −log10 of the molar value. Calls of active or inactive are those of the source.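 The calls were made as follows: active = lowers flux through the TASK3 potassium channel at some tested dose, with a dose response curve; inactive = no inhibition at any dose or no dose response.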

Each molecule was assayed against Potassium channel subfamily K member 9 (Homo sapiens) (UniProt Q9NPC2) (assay: TASK3 (KCNK9) channel inhibitors, thallium flux, SAR follow-up, selectivity assay for TASK1 inhibitor project, cell-based, FluxOR thallium flux, concentration-response (AID 652211)). Conditions: KCNK9-expressing cells, FluxOR thallium flux fluorescence.
Chain of Potassium channel subfamily K member 9 (Homo sapiens) (Q9NPC2 whole entry, looked up): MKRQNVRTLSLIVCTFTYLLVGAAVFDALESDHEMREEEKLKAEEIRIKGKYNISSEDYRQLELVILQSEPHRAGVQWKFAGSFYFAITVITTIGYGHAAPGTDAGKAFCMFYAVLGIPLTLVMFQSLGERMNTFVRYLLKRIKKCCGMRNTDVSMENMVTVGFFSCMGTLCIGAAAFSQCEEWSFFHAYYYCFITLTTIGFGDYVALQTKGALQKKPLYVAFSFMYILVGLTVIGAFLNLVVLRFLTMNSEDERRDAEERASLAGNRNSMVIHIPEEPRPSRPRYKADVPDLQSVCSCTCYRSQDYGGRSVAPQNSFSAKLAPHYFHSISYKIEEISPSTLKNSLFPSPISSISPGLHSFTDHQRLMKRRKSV

Row | SMILES | pIC50
1 | CC(C)c1ccccc1C(=O)Nc1cccc(NC(=O)c2ccccc2OC(F)(F)F)c1 | 6.14
2 | Cc1cccc(C(=O)Nc2cccc(NC(=O)c3cccc(F)c3)c2)c1 | 6.22

Same assay, conditions: KCNK9-expressing cells, FluxOR thallium flux fluorescence; at 30 µM (top of the series)

Row | SMILES | thallium flux ratio, lower = inhibition
3 | O=C(Nc1cccc(NC(=O)c2cccc(C(F)(F)F)c2)c1)c1ccccc1 | inactive
4 | O=C(Nc1cccc(NC(=O)c2ccc(C(F)(F)F)cc2)c1)c1ccccc1 | inactive
5 | Cc1cccc(NC(=O)c2ccccc2NC(=O)c2ccccc2)c1 | inactive
6 | Cc1ccc(C(=O)Nc2cccc(NC(=O)c3ccccc3)c2)cc1 | inactive
7 | O=C(Nc1cccc(NC(=O)c2ccc(Cl)cc2)c1)c1ccccc1 | inactive
8 | CCOc1ccccc1NC(=O)c1cccc(NC(=O)C2CCCO2)c1 (centres undefined) | inactive
9 | Cc1cccc(S(=O)(=O)Nc2cccc(NC(=O)c3ccccc3)c2)c1 | inactive
10 | COc1ccccc1C(=O)Nc1cc(NC(=O)c2ccccc2C(C)C)ccc1F | inactive
11 | CC(C)(C)c1ccc(C(=O)Nc2cccc(NC(=O)c3ccccc3)c2)cc1 | inactive
12 | O=C(Nc1cccc(NC(=O)c2cccc(Cl)c2)c1)c1ccccc1 | inactive
13 | O=C(Nc1cccc(NC(=O)c2cccs2)c1)c1ccccc1 | inactive
14 | CCOc1ccccc1NC(=O)c1cccc(NC(=O)c2ccc(Cl)cc2)c1 | inactive
15 | Cc1cccc(C(=O)Nc2cccc(NC(=O)c3ccc(N(C)C)cc3)c2)c1 | inactive
16 | O=C(Nc1cccc(NC(=O)c2cccnc2)c1)c1ccccc1 | inactive
17 | Cc1cccc(C(=O)Nc2cccc(NC(=O)c3ccncc3)c2)c1 | inactive
18 | CCOc1ccc(NC(=O)c2cccc(NC(=O)C3CCCC3)c2)cc1 | inactive
19 | O=C(Nc1cccc(NC(=O)c2ccco2)c1)c1ccccc1 | inactive
20 | CCOc1ccccc1NC(=O)c1cccc(NC(=O)c2ccc(OC)cc2)c1 | inactive
21 | Cc1cccc(C(=O)Nc2ccccc2NC(=O)c2ccccc2)c1 | inactive

Row | SMILES | thallium flux ratio, lower = inhibition
22 | COc1ccc(C(=O)Nc2cccc(NC(=O)c3cccc(C)c3)c2)cc1 | inactive
23 | O=C(Nc1cccc(NC(=O)c2cccc(F)c2)c1)c1ccccc1 | inactive
24 | CCOc1ccccc1NC(=O)c1cccc(NC(=O)c2ccc(C(F)(F)F)cc2)c1 | inactive
25 | CCOc1ccccc1NC(=O)c1cccc(NC(=O)C2CCOC2)c1 (centres undefined) | inactive
26 | Cc1cccc(C(=O)Nc2ccccc2C(=O)Nc2ccccc2)c1 | inactive
27 | O=C(Nc1cccc(NC(=O)c2ccncc2)c1)c1ccccc1 | inactive
28 | Cc1cccc(C(=O)Nc2cccc(C(=O)Nc3ccccc3)c2)c1 | inactive
29 | Cc1cccc(C(=O)Nc2cccc(NC(=O)c3ccc(C(C)(C)C)cc3)c2)c1 | inactive
30 | Cc1cccc(C(=O)Nc2cccc(NC(=O)c3ccc(C(F)(F)F)cc3)c2)c1 | inactive
31 | Cc1cccc(C(=O)Nc2cccc(NC(=O)c3ccc(Cl)cc3)c2)c1 | inactive
32 | CCOc1ccccc1NC(=O)c1cccc(C(=O)NC2CCCC2)c1 | inactive
33 | O=C(Nc1cccc(NC(=O)c2ccccc2)c1)c1ccccc1 | inactive
34 | O=C(Nc1cccc(NC(=O)c2ccoc2)c1)c1ccccc1 | inactive
35 | O=C(Nc1cccc(NC(=O)c2ccc(F)cc2)c1)c1ccccc1 | inactive
36 | Cc1cccc(NC(=O)c2cccc(NC(=O)c3ccccc3)c2)c1 | inactive
37 | O=C(Nc1cccc(NC(=O)c2ccsc2)c1)c1ccccc1 | inactive
38 | CN(C)c1ccc(C(=O)Nc2cccc(NC(=O)c3ccccc3)c2)cc1 | inactive
39 | COc1ccc(C(=O)Nc2cccc(NC(=O)c3ccccc3)c2)cc1 | inactive
